Literature values as cited in PubChem BioAssay AID1259409 (Chemical Carcinogenesis Research Information System (CCRIS), 2018).

Test system: rodent chemically induced tumor inhibition, incidence and multiplicity
Test: CCRIS tumor inhibitor studies
Details: Dose [Inhibitor]: 0, Route [Inhibitor]: ORAL, Species: RAT, Promoter: NONE USED

Which “tumour outcome (control, treated, inhibition, significance)” value (Carcinogen: DIETHYLNITROSAMINE, 55-18-5, N-METHYL-N-NITROSOUREA, 684-93-5, N-BUTYL-N-(4-HYDROXYBUTYL)NITROSAMINE, 3817-11-6, 1,2-DIM, Carcinogen: DIETHYLNITROSAMINE, 55-18-5, N-METHYL-N-NITROSOUREA, 684-93-5, N-BUTYL-N-(4-HYDROXYBUTYL)NITROSAMINE, 3817-11-6, 1,2-DIM, 0.3% IND DIET FOR 23 WK BEGINNING 1 WK POST CARCINOGEN TREATMENT (STUDY DURATION: 28 WK), Strain/Sex: F344/MALE, Target Tissue: Type of Lesion: URINARY BLADDER: PAPILLOMA, Dose [Carcinogen]: 100 MG/KG BW DEN ONCE, 20 MG/KG BW MNU ONCE ON DAYS 6,9, AND 12, 0.05% BBN IN DRINKING WATER FOR FIRST TWO WK, 40 MG/KG, Dose [Carcinogen]: 100 MG/KG BW DEN ONCE, 20 MG/KG BW MNU ONCE ON DAYS 6,9, AND 12, 0.05% BBN IN DRINKING WATER FOR FIRST TWO WK, 40 MG/KG) does the source give for `C[C@]12CC[C@H](O)CC1=CC[C@@H]1[C@@H]2CC[C@]2(C)C(=O)CC[C@@H]12` here?
The value was 2/20 (10%), 1/20 (5%), 50%, not significant.

What about the outcome (Carcinogen: DIETHYLNITROSAMINE, 55-18-5, N-METHYL-N-NITROSOUREA, 684-93-5, N-BUTYLY-N-(4-HYDROXYBUTYL)NITROSAMINE, 3817-11-6, 1,2-DI, Carcinogen: DIETHYLNITROSAMINE, 55-18-5, N-METHYL-N-NITROSOUREA, 684-93-5, N-BUTYLY-N-(4-HYDROXYBUTYL)NITROSAMINE, 3817-11-6, 1,2-DI, 0.3% IN DIET FOR 23 WK BEGINNING 1 WK POST CARCINOGEN TREATMENT (STUDY DURATION: 28 WK), Strain/Sex: F344/MALE, Target Tissue: Type of Lesion: LIVER: CARCINOMA, Dose [Carcinogen]: 100 MG/KG BW DEN ONCE, 20 MG/KG BW MNU ONCE ON DAYS 6,9, AND 12, 0.05% BBN IN DRINKING WATER FOR FIRST TWO WK, 40 MG/KG, Dose [Carcinogen]: 100 MG/KG BW DEN ONCE, 20 MG/KG BW MNU ONCE ON DAYS 6,9, AND 12, 0.05% BBN IN DRINKING WATER FOR FIRST TWO WK, 40 MG/KG) of the same compound?
The outcome was 0/20 (0%), 2/20 (10%), 100%, not significant.

What about the “tumour outcome (control, treated, inhibition, significance)” value (Carcinogen: DIETHYLNITROSAMINE, 55-18-5, N-METHYL-N-NITRSOUREA, 684-93-5, N-BUTYL-N-(4-HYDROXYBUTYL)NITROSAMINE, 3817-11-6, 1,2-DIME, Carcinogen: DIETHYLNITROSAMINE, 55-18-5, N-METHYL-N-NITRSOUREA, 684-93-5, N-BUTYL-N-(4-HYDROXYBUTYL)NITROSAMINE, 3817-11-6, 1,2-DIME, 0.3% IN DIET FOR 23 WK BEGINNING 1 WK POST CARCINOGEN TREATMENT (STUDY DURATION :28 WK), Strain/Sex: F344/MALE, Target Tissue: Type of Lesion: LARGE INTESTINE: ADENOCARCINOMA, Dose [Carcinogen]: 100 MG/KG BW DEN ONCE, 20 MG/KG BW MNU ONCE ON DAYS 6,9, AND 12, 0.05% BBN IN DRINKING WATER FOR FIRST TWO WK, 40 MG/KG, Dose [Carcinogen]: 100 MG/KG BW DEN ONCE, 20 MG/KG BW MNU ONCE ON DAYS 6,9, AND 12, 0.05% BBN IN DRINKING WATER FOR FIRST TWO WK, 40 MG/KG) of the same compound?
The value was 2/20 (10%), 0/20 (0%), 100%, not significant.

And the “tumour outcome (control, treated, inhibition, significance)” value (Carcinogen: DIMETHYLNITROSAMINE, 62-75-9, 0.6% IN DIET BEGINNING 2 WK POST CARCINOGEN DOSE AND CONTINUING FOR 26 WK (STUDY DURATION: 120 WK), Strain/Sex: WISTAR/MALE, Target Tissue: Type of Lesion: KIDNEY: ADENOCARCINOMA, Dose [Carcinogen]: 30 MG/KG ONCE)?
Its value is 12/30 (40%), 24/31 (77%), -93%, p<0.01.

What about the “tumour outcome (control, treated, inhibition, significance)” value (Carcinogen: DIMETHYLNITROSAMINE, 62-75-9, 0.6% IN DIET BEGINNING 2 WK POST CARCINOGEN DOSE AND CONTINUING FOR 26 WK (STUDY DURATION: 120 WK), Strain/Sex: WISTAR/MALE, Target Tissue: Type of Lesion: KIDNEY: ADENOMA, Dose [Carcinogen]: 30 MG/KG ONCE) of the same compound?
The value was 12/30 (40%), 17/31 (55%), -38%, not calculated.

What about the “tumour outcome (control, treated, inhibition, significance)” value (Carcinogen: DIMETHYLNITROSAMINE, 62-75-9, 0.6% IN DIET BEGINNING 2 WK POST CARCINOGEN DOSE AND CONTINUING FOR 26 WK (STUDY DURATION: 120 WK), Strain/Sex: WISTAR/MALE, Target Tissue: Type of Lesion: KIDNEY: EPITHELIAL TUMOR, Dose [Carcinogen]: 30 MG/KG ONCE) of the same compound?
Its value is 19/30 (63%), 26/31 (84%), -33%, not calculated.

What about the “tumour outcome (control, treated, inhibition, significance)” value (Carcinogen: DIMETHYLNITROSAMINE, 62-75-9, 0.6% IN DIET BEGINNING 2 WK POST CARCINOGEN DOSE AND CONTINUING FOR 26 WK (STUDY DURATION: 120 WK), Strain/Sex: WISTAR/MALE, Target Tissue: Type of Lesion: KIDNEY: MESENCHYMAL TUMOR, Dose [Carcinogen]: 30 MG/KG ONCE) of the same compound?
The value was 14/30 (47%), 14/31 (45%), 4%, not significant.

What about the “tumour outcome (control, treated, inhibition, significance)” value (Carcinogen: DIMETHYLNITROSAMINE, 62-75-9, 0.6% IN DIET BEGINNING 2 WK POST CARCINOGEN DOSE AND CONTINUING FOR 26 WK (STUDY DURATION: 120 WK), Strain/Sex: WISTAR/MALE, Target Tissue: Type of Lesion: KIDNEY: TUMOR, Dose [Carcinogen]: 30 MG/KG ONCE) of the same compound?
Its value is 26/30 (87%), 30/31 (97%), -11%, not significant.
